{"source": "patent US20060205826A1", "about": "“Method of using carotenoids in the prevention of cognitive decline and for other neuroprotection functions” (priority 2005, published 2006)", "system": "NF-κB", "test": "NF-κB activity (TransAm Kit) in retina and hippocampus of diabetic mice", "assay_type": "in vivo", "details": "15 days post alloxan, lutein treatment before and after diabetes induction", "protocol": "Male albino mice were used throughout the study, housed in a environmentally regulated room on a dark-light cycle of 12 hours with free access to food and water. Principles of laboratory animal care (NIH publication no. 85-23, revised 1985) were followed, as well as specific Spanish regulations. Animals were made diabetic with a single subcutaneous injection of 200 mg alloxan/kg body weight (66 mg/ml) in 0.1 M citrate buffer, pH 4.5, at day 0 of the experiment. Control mice were injected with the same volume of vehicle also at day 0 of the experiment. Mice were identified as diabetic on the basis of blood glucose levels (higher than 16 mM at least 4 days after alloxan treatment). Animals were divided into subgroups as required by the experiment (control, control+lutein, diabetic, diabetic+lutein, diabetic+insulin, diabetic+insulin+lutein). […] Insulin treated animals were injected daily with 500 mU/g body weight since day 4 until the end of the experiment. Mice were killed by cervical dislocation on day 14, and hippocampus and retina were removed and homogenized in pre-chilled 0.2 M potassium phosphate buffer, pH 7.0. […] Glycated hemoglobin was determined in blood samples obtained by heart puncture immediately before killing the animals. NF-κB activity was determined with TransAm Kit (Active Motif) that combines an ELISA test with an specific assay for transcription factors. […]"}
{"compound": "CC1=C[C@H](O)CC(C)(C)[C@H]1/C=C/C(C)=C/C=C/C(C)=C/C=C/C=C(C)/C=C/C=C(C)/C=C/C1=C(C)C[C@@H](O)CC1(C)C", "note": "[Lutein]", "values": [{"measurement": "NF-κB expression in hippocampus", "result": "decreased"}, {"measurement": "NF-κB expression in retina", "result": "decreased"}]}
